Source: patent EP2295560A1, “Directed evolution of arginine deiminase for increased activity at physiological pH” (priority 2009, dated 2011)

Target: Pseudomonas plecoglossicida arginine deiminase (PpADI) variant M2 (K5T D44E H404R) (Pseudomonas plecoglossicida, UniProt A7LKB0, D44E/H404R/K5T)
Experiment: Determination of kcat and Km (citrulline colorimetric assay, purified enzyme)
Type: biochemical, Pseudomonas plecoglossicida CGMCC2039
Conditions: pH 7.4, conversion of arginine to citrulline, compared to wild type
Experimental: The kcat and Km values were determined from initial velocity data measured as a function of substrate concentration. Enzyme reaction was carried out at 37°C in a water bath. After 10 min preincubation at 37"C, the enzyme reaction was initiated by addition of purified enzyme (50 µl, 0.2-0.5 µM) to the substrate solution (200 µl, 0.2 mM to 10 mM of arginine, 0.5 M phosphate buffer, pH 7.4) in deep well plates. The reaction mixture was incubated (37°C) and every two minutes reaction mixture (30 µl) of each well was transferred to acid-ferric solution (30 µl) to stop the enzyme reaction. The color development was subsequently performed in 96-well PCR plate. Ferric-acid solution (90 µl) and DAM-TSC solution (15 µl) were added to each well. The 96-well PCR plate was then incubated (70°C, 30 min) in thermal cycler (Eppendorf Mastercyler gradient) for color development, followed by incubation in ice water to stop color development. Absorbance was measured at 530 nm using a microtiter plate reader (SPECTROstar Omega, BMG LABTECH, Offenburg, Germany). […] The kcat was calculated from the ratio of Vmax, and enzyme concentration. […]

Sequence of Pseudomonas plecoglossicida arginine deiminase (PpADI) variant M2 (K5T D44E H404R) (A7LKB0 whole entry D44E/H404R/K5T): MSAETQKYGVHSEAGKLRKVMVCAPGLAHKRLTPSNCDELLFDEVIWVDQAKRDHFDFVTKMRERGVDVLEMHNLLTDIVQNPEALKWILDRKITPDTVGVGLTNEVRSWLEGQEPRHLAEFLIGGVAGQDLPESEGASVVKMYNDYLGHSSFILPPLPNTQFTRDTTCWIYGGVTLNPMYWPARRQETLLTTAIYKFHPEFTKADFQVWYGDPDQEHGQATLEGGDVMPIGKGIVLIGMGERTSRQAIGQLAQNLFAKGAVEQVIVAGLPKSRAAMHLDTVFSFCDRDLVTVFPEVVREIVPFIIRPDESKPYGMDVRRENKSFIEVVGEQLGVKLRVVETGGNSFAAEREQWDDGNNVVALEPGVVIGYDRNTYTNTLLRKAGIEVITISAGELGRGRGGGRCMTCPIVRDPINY

## N=C(N)NCCC[C@H](N)C(=O)O [arginine]
  kcat, fold higher than wild type PpADI: 4 fold
